# Experimental data published in a melting point compilation (Tetko et al.; mined from patent text by program, amines drawn as free bases though some values may be those of a salt).
row,SMILES,melting point [°C]
1,CCOC(=O)C1=C(C)NC(C)=C(C(=O)OCCN2CCN(C(c3ccc(C)cc3)c3ccc(C)cc3)CC2)C1c1ccc(C#N)cc1 (stereo not drawn),93 to 96
2,COc1cc(C=O)ccc1OC(=O)NCCc1ccccc1,133 to 138
3,CC1(C)CCc2cc(OCc3ccccc3)c(O)c([N+](=O)[O-])c2C1=O,146 to 149
4,Fc1cccc(F)c1COc1cccnc1NC(=S)Nc1ccc(Cl)cc1,151 to 154
5,COc1ccc(C(O)(c2ccccc2)c2ccc(OC)cc2)cc1,122 to 124
6,CCCCn1c(=O)c2c(ncn2CCCCC(C)=O)n(CCCC)c1=O,88
7,COC(=O)c1cccc(-c2ncc(N=CN(C)C)cn2)c1,146
8,Cc1c(Cl)ccc2c(=O)n(CCCN3CC=C(c4ccc(Cl)cc4)CC3)c(=O)[nH]c12,208 to 210
9,O=C1CCC(c2ccc(-c3ccc(Cl)c(Cl)c3)o2)O1 (stereo not drawn),89 to 90
10,NC(=O)Nc1cccc2c1nc(/C=C/c1ccccc1)n2-c1ccccn1,> 230
11,CCOC(=O)c1ccc2ccccn2c1=O,105 to 109
12,CC(C)NC(=O)Nc1cc(C(C)(C)C)on1,135 to 138
13,COC(=O)CCC(=O)N(C)c1cccc(OCc2nc3ccccc3s2)c1,107 to 110
14,CCS(=O)(=O)N(C)[C@@H]1c2cc(C#N)ccc2OCC[C@H]1O (relative stereo),142 to 144
15,CC1CCCC2C1N2CC(O)Cn1ccnc1[N+](=O)[O-] (stereo not drawn),124
16,O=c1[nH]c2ccc(Cl)cc2n1CCCN1CCC(O)(c2ccc(Cl)cc2)CC1,181
17,CCCCOC(=O)c1ccc(NCc2cc(Br)ccc2OCc2ccccc2)nn1,133 to 135
18,O=C=Nc1ccc(-c2n[nH]c3c2Cc2ccccc2-3)cc1,338 to 339
19,Cn1c(S)nc(-c2ccncc2)cc1=O,250 to 252
20,Cc1ccc(S(=O)(=O)OCCc2nc(-c3ccc(Br)cc3)oc2C)cc1,136
21,CC(C)(C)c1ccnc(C(=O)c2[nH]c3cc(Cl)ccc3c2CC(=O)O)c1,203 to 205
22,CCCCNC(=O)Nc1ccc(N(CC)CC)cc1C(=O)NCC1CCN(C(c2ccccc2)c2ccccc2)CC1,158 to 160
23,COc1cc(Nc2nccc(NS(=O)(=O)c3ccccc3)n2)cc(OC)c1OC,164
24,CC(C)C1(C)N=C(c2ncc(C=O)cc2C(=O)O)NC1=O (stereo not drawn),187 to 198
25,NC(=NO)c1ncn2c1N1CCN=C1c1ccccc1-2,209 to 212

row,SMILES,melting point [°C]
1,CC(=O)NCCn1ccc2ncnc(Nc3ccc(Oc4cccc5sncc45)c(Cl)c3)c21,222 to 224
2,Cc1ccn(-c2ccc(C(=O)N3Cc4ccc(C)n4Cc4ccccc43)c(Cl)c2)n1,178 to 180
3,CC(=O)Nc1cc(C)c(N)c(C)c1[N+](=O)[O-],197
4,CN(C[C@H]1CC[C@H](c2nc3ccccc3n2C)CC1)C(=O)OCc1ccccc1,141 to 142
5,CCCCCCCCCCCCCCOc1ccc(CC(=O)OC)cc1F,38 to 40
6,Cc1cc(N2CCN(c3c(C)c(C)c4c(c3C)CC(C)(C)O4)CC2)ccc1Cl,168 to 171
7,COc1ccc(C(=O)O)cc1NC(=O)C(CS)Cc1ccccc1 (stereo not drawn),188 to 192
8,C=CCc1c2nc(C(=O)OC)cc(Cl)c2cc2c(=O)cc(C(=O)OCC)oc12,197 to 198
9,CC1(C)OC(=O)C(Cc2c[nH]c3ccc(Br)cc23)C(=O)O1,179 to 181
10,N#Cc1cc(F)cc(C#N)c1,98 to 100
11,Cc1[nH]c(/C=C2\C(=O)Nc3ccc(F)cc32)c(C)c1C(=O)NCCCCCC(=O)NO,210
12,O=C(Nc1cc(Cl)cc2c(Cl)ccnc12)c1c(Cl)cccc1Cl,201 to 205
13,Cc1cccc2c1C(=O)C1(CCOC1=O)S2 (stereo not drawn),106
14,CNCc1cccc2c1ccn2S(=O)(=O)c1ccccc1,75 to 77
15,O=C(CN1CCC(Cc2ccc(F)cc2)CC1)Nc1ccc2[nH]ncc2c1,149 to 152
16,O=C1N(Cc2ccc3nonc3c2)c2ccccc2C12COc1cc3c(cc12)CCO3 (stereo not drawn),169 to 171
17,CNC(=O)c1ccccc1C(=O)NCSc1ccncc1,118 to 121
18,Nc1ccc(C2=CCOCC2)c(F)c1,86 to 88
19,Cc1c(Br)c(Br)nn1C(C)C(=O)N(C)C(C)C (stereo not drawn),95 to 96.5
20,CCCCCCCCCCNC(=O)N(C)O,74 to 76
21,COc1cc(N)c(Cl)cc1C(=O)NC1CCN(C(C)CC(C(=O)N(C)C)(c2ccccc2)c2ccccc2)CC1O (stereo not drawn),132
22,C#CCOc1ccc(C2c3[nH]c4ccccc4c3CC(C(=O)OC)N2C(=O)CCl)cc1 (stereo not drawn),218
23,CCC(C)c1ccc(-n2c(-c3cc(C)c(OCCO)c(C)c3)nc3ccc(OC)cc3c2=O)cc1 (stereo not drawn),152 to 154
24,CCCCCCCCCCCCCCCCCC(=O)c1c[nH]c2cc(C(=O)O)ccc12,268 to 270
25,Cc1cc(-c2ccncc2)n2ncc(C(=O)c3ccccc3)c2n1,209 to 210

row,SMILES,melting point [°C]
1,O=C(c1ccc(Cl)cc1)c1ccc(SC(F)(F)F)cc1,78 to 79
2,COC(=O)c1cc(N(C)C)c2cc(Cc3ccc(F)cc3)cnc2c1O,62 to 63
3,CCOC(=O)c1cccn1Cc1ccc(Cl)cc1N,104 to 107
4,C=CCOC1CC2C3CCC4=CC(=O)CCC4(C)C3(F)C(O)CC2(C)C1(O)C(=O)CCl (stereo not drawn),224 to 225
5,CN(C=O)[C@@H]1CCCc2ccccc21,53 to 55
6,C[C@H](NC(=O)c1ccccc1)C(=O)CCl,120 to 122
7,CC(=O)Nc1c(C(=O)c2cc(C)ccn2)[nH]c2cc(Cl)ccc12,187 to 188
8,COc1ccc(C(=O)c2c(F)cccc2F)cc1CC(=O)O,187
9,Nc1cc(-c2noc(-c3cnn4c(C(F)(F)F)cc(-c5ccc(Cl)cc5)nc34)n2)ccn1,252
10,CCCc1c2occ(C(=O)O)cc-2c(=O)c2cc(C(=O)O)sc12,> 250
11,C=C(C)COC1CC2C3CCC4=CC(=O)C=CC4(C)C3(F)C(O)CC2(C)C1(O)C(=O)CCl (stereo not drawn),238 to 240
12,Cc1c(-c2ccncc2)sc(-c2ccncc2)c1C=O,139 to 140
13,O=C(O)c1ccc2cc(OCCCCCCc3cccc(OCc4ccccc4)c3OCc3ccccc3)ccc2c1,66 to 68
14,FC(F)(F)C1(c2cc(Cl)cc(Cl)c2)CC(c2ccc(Br)c3ccccc23)=NO1 (stereo not drawn),127 to 130
15,Cc1nc(Cl)c(Cl)n1CCCCN1CCN(c2ncc(O)cn2)CC1,154 to 156
16,O=C1c2ccccc2C(=O)N1CC1Cc2ccc3c(c2O1)CCC3 (stereo not drawn),131 to 135
17,CCOc1nc2c(cnn2CC)nc1C#N,73 to 74
18,CC(O)c1cc(C#C[Si](C)(C)C)c(O)c(Cl)n1 (stereo not drawn),97 to 98
19,CCOC(=O)c1cn(Cc2ccccc2)nc1OCc1ccc(OCc2nc(-c3ccco3)oc2C)c(Br)c1,158 to 159
20,COc1ccn(-c2nc(C)c(C(=O)NCc3ccccc3)s2)c(=O)c1,205 to 208
21,CC(NC(=O)C1CCNCC1)c1ccccc1 (stereo not drawn),136
22,Cc1nn(-c2cc(Oc3ccc(O)cc3)c(Cl)cc2F)c(=O)n1C(F)F,162
23,C=CCC1(C(=O)NCC)c2ccccc2Oc2ccccc21,111 to 112
24,CCCCCCCCCCCCCCOc1cc(OCCCCCCCCCCCCCC)cc(C(=O)N(CC(=O)O)CC(=O)O)c1,88 to 90
25,CSC(=N)Nc1ccc(Cl)c(Cl)c1,166

row,SMILES,melting point [°C]
1,O=c1[nH]c2cc(Cl)cc([N+](=O)[O-])c2[nH]c1=O,315 to 317
2,CC(C)C(S)C(=O)NC1(C(=O)NC(Cc2ccc(-c3ccccc3)s2)C(=O)O)CCCC1 (stereo not drawn),154 to 155
3,CC1(C)Oc2ccc(OC(F)(F)F)cc2[C@@H](NC(=O)c2ccc(C(F)(F)F)cc2[N+](=O)[O-])[C@@H]1O,60 to 65
4,CCOC(=O)c1ccc(-c2ccc(-c3cccc(OC)c3)c(-c3ccc4c(c3)C(C)(C)CCC4(C)C)c2)cc1,116 to 118
5,CCOC(=O)CCCCCCCC1CC2=C(C1)C(=O)C(OC)=C(OC)C2=O,39 to 40
6,O=c1c2ccc(Cl)cc2[nH]c2c(O)nn(Cc3ccccc3F)c(=O)c12,215
7,CC(=NO)c1ccc2c(c1)oc1ccccc12,132 to 135
8,COc1cc(C(=O)c2ncc3ccc(C(N)=O)cn23)ccc1[N+](=O)[O-],289
9,CCCn1nc2c(N)nc3ccccc3c2c1CC1CCOCC1,218 to 220
10,N=C(NO)c1ccc(-c2ccc(-c3nc4cc(C(=N)NO)ccc4[nH]3)cc2)c(OCc2ccccc2)c1,250 to 253
11,NC(=O)c1c(Cl)cn2c1CN(S(=O)(=O)c1ccc(C(F)(F)F)cc1)CC2,159 to 160
12,C[C@@H](NC(=O)c1csc(-c2ccc(Cl)cc2)n1)[C@](O)(Cn1cncn1)c1ccc(F)cc1F,201 to 204
13,COc1cc(OC)c2c(C)c(CCN3CCN(c4cccc(C(F)(F)F)c4)CC3)c(=O)oc2c1,138 to 139
14,CCCn1cc2c(C3C(=O)Nc4ccc(Br)cc43)nc(NCCc3cccnc3)nc2n1 (stereo not drawn),294 to 297
15,CN1CCCC1=Cc1ccc([N+](=O)[O-])cc1[N+](=O)[O-],188 to 190
16,Cc1cccc(-c2ccc(C(=O)N3Cc4cccn4Cc4ccccc43)cc2)c1,128 to 130
17,CC(CNc1ccc(Cl)cc1)COc1ccc(C(=O)O)cc1 (stereo not drawn),148 to 150
18,Cn1c2c(c3cccc(C(=O)O)c31)CCCC2,180
19,CCOCCCN(C)Cc1ccc(NC(=O)C2=Cc3cc(-c4ccc(C)cc4)ccc3OCC2)cc1,119 to 122
20,COc1cc(CO)c([N+](=O)[O-])cc1OCCCCCCOC(C)=O,> 220
21,O=S1(=O)N=CN(C2CCCC2)c2cc(Cl)c(Cl)cc21,189 to 191
22,COc1cc2c(-c3cc4cccnc4[nH]3)cn(C)c2cc1O,250
23,CC(C)C(=O)N1CCC(C(CS(=O)(=O)c2ccc(Oc3ccc(OC(F)(F)F)cc3)cc2)N(O)C=O)CC1 (stereo not drawn),139 to 140
